± gives the expanded uncertainty stated by the source.
Assay: mn = molality of the nth substance listed, in mol/kg
Conditions: 101 kPa, Liquid

NCC(=O)O [2-aminoacetic acid] + O
Conditions	mass density [kg/m3]
288.15 K, m1 = 0.07326	1001.51 ± 0.17
288.15 K, m1 = 0.1458	1003.85 ± 0.17
288.15 K, m1 = 0.2326	1006.63 ± 0.18
288.15 K, m1 = 0.2824	1008.21 ± 0.18
288.15 K, m1 = 0.3277	1009.64 ± 0.19
288.15 K, m1 = 0.4371	1013.07 ± 0.19
298.15 K, m1 = 0.1536	1001.88 ± 0.17
298.15 K, m1 = 0.2528	1004.96 ± 0.18
298.15 K, m1 = 0.302	1006.47 ± 0.18
298.15 K, m1 = 0.3469	1007.84 ± 0.18
298.15 K, m1 = 0.4593	1011.25 ± 0.19
308.15 K, m1 = 0.07746	993.053 ± 0.18
308.15 K, m1 = 0.2534	998.473 ± 0.17
308.15 K, m1 = 0.3017	999.939 ± 0.17
308.15 K, m1 = 0.3466	1001.29 ± 0.17
308.15 K, m1 = 0.4586	1004.65 ± 0.18
318.15 K, m1 = 0.1525	994.942 ± 0.18
318.15 K, m1 = 0.2564	998.093 ± 0.17
318.15 K, m1 = 0.3091	999.679 ± 0.17
318.15 K, m1 = 0.3656	1001.36 ± 0.17
318.15 K, m1 = 0.4809	1004.79 ± 0.18

[Cl-].[Cl-].[Zn+2] [zinc chloride] + O
mass density [kg/m3]
Conditions	288.15 K	298.15 K	308.15 K	318.15 K
m1 = 0.1	1011.64 ± 0.57	1009.38 ± 0.55	1005.93 ± 0.53	1002.03 ± 0.51
m1 = 0.5	1058.86 ± 0.86	1055.44 ± 0.84	1047.95 ± 0.79	1043.29 ± 0.76
m1 = 1	1113.88 ± 1.2	1106.55 ± 1.2	1097.59 ± 1.1	1090.83 ± 1.1
m1 = 1.5	1160.53 ± 1.5	1152.82 ± 1.5	1142.54 ± 1.4	1135.27 ± 1.4
